Where two headings read alike, the source gives them in different places.
What was measured:
human CB2 receptors = target: T1, human CB2 receptors (Homo sapiens, UniProt P34972); assay: cAMP assay; format: cell-based
T1 construct: expressed in transfected cells; host or cells: CHO cells
Method: (§1) CHO cells expressing human CB1 or CB2 receptors are seeded 17-24 hours prior to the experiment 50.000 cells per well in a black 96 well plate with flat clear bottom (Corning Costar #3904) in DMEM (Invitrogen No. 31331), 1×HT supplement, with 10% fetal calf serum and incubated at 5% CO2 and 37° C. in a humidified incubator. The growth medium was exchanged with Krebs Ringer Bicarbonate buffer with 1 mM IBMX and incubated at 30° C. for 30 min. Compounds were added to a final assay volume of 100 μl and incubated for 30 min at 30° C. Using the cAMP-Nano-TRF detection kit the assay (Roche Diagnostics) was stopped by the addition of 50 μl lysis reagent (Tris, NaCl, 1.5% Triton X100, 2.5% NP40, 10% NaN3) and 50 μl detection solutions (20 μM mAb Alexa700-cAMP 1:1, and 48 μM Ruthenium-2-AHA-cAMP) and shaken for 2 h at room temperature. The time-resolved energy transfer is measured by a TRF reader (Evotec Technologies GmbH), equipped with a ND:YAG laser as excitation source. The plate is measured twice with the excitation at 355 nm and at the emission with a delay of 100 ns and a gate of 100 ns, total exposure time 10 s at 730 (bandwidth 30 nm) or 645 nm (bandwidth 75 nm), respectively. The FRET signal is calculated as follows: FRET=T730-Alexa730-P(T645-B645) with P=Ru730-B730/Ru645-B645, where T730 is the test well measured at 730 nM, T645 is the test well measured at 645 nm, B730 and B645 are the buffer controls at 730 nm and 645 nm, respectively. cAMP content is determined from the function of a standard curve spanning from 10 μM to 0.1 nM cAMP.
(§2) EC50 values were determined using Activity Base analysis (ID Business Solution, Limited). The EC50 values for a wide range of cannabinoid agonists generated from this assay were in agreement with the values published in the scientific literature.

human CB1 receptors = target: T2, human CB1 receptors (Homo sapiens, UniProt P21554); assay: cAMP assay; format: cell-based
T2 construct: expressed in transfected cells; host or cells: CHO cells
Method: as §1, §2

T1 sequence (P34972 whole entry): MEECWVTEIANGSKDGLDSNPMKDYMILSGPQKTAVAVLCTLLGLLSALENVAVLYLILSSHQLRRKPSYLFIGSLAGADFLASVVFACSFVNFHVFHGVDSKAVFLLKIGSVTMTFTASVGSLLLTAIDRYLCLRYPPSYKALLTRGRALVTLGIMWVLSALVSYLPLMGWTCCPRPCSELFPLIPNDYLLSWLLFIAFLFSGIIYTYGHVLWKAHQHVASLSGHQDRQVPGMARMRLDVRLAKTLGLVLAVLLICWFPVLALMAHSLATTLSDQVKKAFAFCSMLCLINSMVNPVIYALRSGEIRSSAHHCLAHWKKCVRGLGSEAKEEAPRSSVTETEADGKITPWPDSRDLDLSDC
T2 sequence (P21554 whole entry): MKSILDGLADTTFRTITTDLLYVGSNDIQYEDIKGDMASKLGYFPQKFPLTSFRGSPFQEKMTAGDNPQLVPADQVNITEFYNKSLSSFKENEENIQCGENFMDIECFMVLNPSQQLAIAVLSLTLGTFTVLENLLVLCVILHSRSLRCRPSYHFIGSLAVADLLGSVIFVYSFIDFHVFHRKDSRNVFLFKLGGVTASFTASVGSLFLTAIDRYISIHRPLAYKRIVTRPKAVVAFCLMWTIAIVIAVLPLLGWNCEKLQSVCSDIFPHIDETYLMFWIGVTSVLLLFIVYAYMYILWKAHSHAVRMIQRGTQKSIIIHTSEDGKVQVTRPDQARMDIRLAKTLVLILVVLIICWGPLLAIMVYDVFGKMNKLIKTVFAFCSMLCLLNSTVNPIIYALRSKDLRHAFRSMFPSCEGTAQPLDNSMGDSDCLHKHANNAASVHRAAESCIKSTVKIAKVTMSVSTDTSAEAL

| Compound | EC50 (human CB2 receptors; functional cAMP assay, CHO cells expressing human CB2, read-out: human CB2 EC50) [nM] | EC50 (human CB1 receptors; functional cAMP assay, head printed human CB2 (probably human CB1), read-out: human CB2 EC50) [nM] | EC50 (human CB2 receptors) [nM] | EC50 (human CB1 receptors) [nM] |
| --- | --- | --- | --- | --- |
| 5-tert-Butyl-2-(1-cyclopropyl-1H-tetrazol-5-ylmethyl)-7-(2-oxa-6-aza-spiro[3.3]hept-6-yl)-2H-[1,2,3]triazolo[4,5-d]pyrimidine [Example 105] | 110 | > 10000 | – | – |
| CC(C)(C)c1nc(N2CCOCC2)c2nn(Cc3ccccc3Cl)nc2n1 [Example 1, 5-tert-Butyl-2-(2-chloro-benzyl)-7-morpholin-4-yl-2H-[1,2,3]triazolo[4,5d]pyrimidine] | – | – | 3.3 | > 10000 |
| CC(C)(C)c1nc(N2CCOCC2)c2nn(Cc3ccc(F)cc3Cl)nc2n1 [Example 2, 5-tert-Butyl-2-(2-chloro-4-fluoro-benzyl)-7-morpholin-4-yl-2H-[1,2,3]triazolo[4,5-d]pyrimidine] | – | – | 2.2 | > 10000 |
| CCn1nc2nc(C(C)(C)C)nc(N3CCC(F)(F)C3)c2n1 [Example 3, 5-tert-Butyl-7-(3,3-difluoro-pyrrolidin-1-yl)-2-ethyl-2H-[1,2,3]triazolo[4,5-d]pyrimidine] | – | – | 18.5 | > 10000 |
| COCCn1nc2nc(C(C)(C)C)nc(N3CCC(F)(F)C3)c2n1 [Example 4, 5-tert-Butyl-7-(3,3-difluoro-pyrrolidin-1-yl)-2-(2-methoxy-ethyl)-2H-[1,2,3]triazolo[4,5-d]pyrimidine] | – | – | 8 | > 10000 |
| CC(C)(C)c1nc(N2CCC(F)(F)C2)c2nn(CCO)nc2n1 [Example 5, 2-[5-tert-Butyl-7-(3,3-difluoro-pyrrolidin-1-yl)-[1,2,3]triazolo[4,5-d]pyrimidin-2-yl]-ethanol] | – | – | 64.7 | > 10000 |
| CC(C)(C)c1nc(N2CCC(F)(F)C2)c2nn(CC3CCCCC3)nc2n1 [Example 6, 5-tert-Butyl-2-cyclohexylmethyl-7-(3,3-difluoro-pyrrolidin-1-yl)-2H-[1,2,3]triazolo[4,5-d]pyrimidine] | – | – | 0.5 | 306 |
| CC(C)(C)c1nc(N2CCC(F)(F)C2)c2nn(Cc3cccc(Cl)c3)nc2n1 [Example 7, 5-tert-Butyl-2-(3-chloro-benzyl)-7-(3,3-difluoro-pyrrolidin-1-yl)-2H-[1,2,3]triazolo[4,5-d]pyrimidine] | – | – | 4.1 | > 10000 |
| CC(C)(C)c1nc(N2CCC(F)(F)C2)c2nn(Cc3ccc(Cl)cc3)nc2n1 [Example 8, 5-tert-Butyl-2-(4-chloro-benzyl)-7-(3,3-difluoro-pyrrolidin-1-yl)-2H-[1,2,3]triazolo[4,5-d]pyrimidine] | – | – | 6.5 | > 10000 |
| CC(C)(C)c1nc(N2CCC(F)(F)C2)c2nn(Cc3cccc(Cl)c3Cl)nc2n1 [Example 9, 5-tert-Butyl-2-(2,3-dichloro-benzyl)-7-(3,3-difluoro-pyrrolidin-1-yl)-2H-[1,2,3]triazolo[4,5-d]pyrimidine] | – | – | 3.4 | > 10000 |
| CC(C)(C)c1nc(N2CCC(F)(F)C2)c2nn(Cc3ccc(Cl)cc3Cl)nc2n1 [Example 10, 5-tert-Butyl-2-(2,4-dichloro-benzyl)-7-(3,3-difluoro-pyrrolidin-1-yl)-2H-[1,2,3]triazolo[4,5-d]pyrimidine] | – | – | 4.1 | > 10000 |
| CC(C)(C)c1nc(N2CCC(F)(F)C2)c2nn(Cc3cc(Cl)ccc3Cl)nc2n1 [Example 11, 5-tert-Butyl-2-(2,5-dichloro-benzyl)-7-(3,3-difluoro-pyrrolidin-1-yl)-2H-[1,2,3]triazolo[4,5-d]pyrimidine] | – | – | 1.2 | > 10000 |
| CC(C)(C)c1nc(N2CCC(F)(F)C2)c2nn(Cc3c(Cl)cccc3Cl)nc2n1 [Example 12, 5-tert-Butyl-2-(2,6-dichloro-benzyl)-7-(3,3-difluoro-pyrrolidin-1-yl)-2H-[1,2,3]triazolo[4,5-d]pyrimidine] | – | – | 1.5 | > 10000 |
| CC(C)(C)c1nc(N2CCC(F)(F)C2)c2nn(Cc3ccc(F)cc3Cl)nc2n1 [Example 13, 5-tert-Butyl-2-(2-chloro-4-fluoro-benzyl)-7-(3,3-difluoro-pyrrolidin-1-yl)-2H-[1,2,3]triazolo[4,5-d]pyrimidine] | – | – | 1 | > 10000 |
| CC(C)(C)c1nc(N2CCC(F)(F)C2)c2nn(Cc3c(F)cccc3Cl)nc2n1 [Example 14, 5-tert-Butyl-2-(2-chloro-6-fluoro-benzyl)-7-(3,3-difluoro-pyrrolidin-1-yl)-2H-[1,2,3]triazolo[4,5-d]pyrimidine] | – | – | 0.5 | 65 |
| CC(C)(C)c1nc(N2CCC(F)(F)C2)c2nn(Cc3ccccn3)nc2n1 [Example 15, 5-tert-Butyl-7-(3,3-difluoro-pyrrolidin-1-yl)-2-pyridin-2-ylmethyl-2H-[1,2,3]triazolo[4,5-d]pyrimidine] | – | – | 0.7 | 210 |
| CC(C)(C)c1nc(N2CCC(F)(F)C2)c2nn(Cc3cccnc3)nc2n1 [Example 16, 5-tert-Butyl-7-(3,3-difluoro-pyrrolidin-1-yl)-2-pyridin-3-ylmethyl-2H-[1,2,3]triazolo[4,5-d]pyrimidine] | – | – | 3.9 | > 10000 |
| CC(C)(C)c1nc(N2CCC(F)(F)C2)c2nn(Cc3ccncc3)nc2n1 [Example 17, 5-tert-Butyl-7-(3,3-difluoro-pyrrolidin-1-yl)-2-pyridin-4-ylmethyl-2H-[1,2,3]triazolo[4,5-d]pyrimidine] | – | – | 0.8 | > 10000 |
| CC(C)(C)c1nc(N2CCC(F)(F)C2)c2nn(CC(F)(F)F)nc2n1 [Example 18, 5-tert-Butyl-7-(3,3-difluoro-pyrrolidin-1-yl)-2-(2,2,2-trifluoro-ethyl)-2H-[1,2,3]triazolo[4,5-d]pyrimidine] | – | – | 1.4 | > 10000 |
| CC(C)(C)c1nc(N2CCC(F)(F)C2)c2nn(Cc3cc(F)c(F)cc3Cl)nc2n1 [Example 19, 5-tert-Butyl-2-(2-chloro-4,5-difluoro-benzyl)-7-(3,3-difluoro-pyrrolidin-1-yl)-2H-[1,2,3]triazolo[4,5-d]pyrimidine] | – | – | 2.2 | > 10000 |
| CC(C)(C)c1nc(N2CCC(F)(F)C2)c2nn(Cc3c(F)ccc(F)c3Cl)nc2n1 [Example 20, 5-tert-Butyl-2-(2-chloro-3,6-difluoro-benzyl)-7-(3,3-difluoro-pyrrolidin-1-yl)-2H-[1,2,3]triazolo[4,5-d]pyrimidine] | – | – | 0.2 | 34 |
| CC(C)(C)c1nc(N2CCC(F)(F)C2)c2nn(Cc3ccccc3Br)nc2n1 [Example 21, 2-(2-Bromo-benzyl)-5-tert-butyl-7-(3,3-difluoro-pyrrolidin-1-yl)-2H-[1,2,3]triazolo[4,5-d]pyrimidine] | – | – | 0.1 | 183 |
| CC(C)(C)c1nc(N2CCC(F)(F)C2)c2nn(Cc3ccccc3C(F)(F)F)nc2n1 [Example 22, 5-tert-Butyl-7-(3,3-difluoro-pyrrolidin-1-yl)-2-(2-trifluoromethyl-benzyl)-2H-[1,2,3]triazolo[4,5-d]pyrimidine] | – | – | 0.2 | > 10000 |
| COc1ccccc1Cn1nc2nc(C(C)(C)C)nc(N3CCC(F)(F)C3)c2n1 [Example 23, 5-tert-Butyl-7-(3,3-difluoro-pyrrolidin-1-yl)-2-(2-methoxy-benzyl)-2H-[1,2,3]triazolo[4,5-d]pyrimidine] | – | – | 0.2 | 86 |
| CC(C)(C)c1nc(N2CCC(F)(F)C2)c2nn(Cc3ccccc3OC(F)(F)F)nc2n1 [Example 24, 5-tert-Butyl-7-(3,3-difluoro-pyrrolidin-1-yl)-2-(2-trifluoromethoxy-benzyl)-2H-[1,2,3]triazolo[4,5-d]pyrimidine] | – | – | 0.4 | > 10000 |
| CC(C)(C)c1nc(N2CCC(F)(F)C2)c2nn(Cc3ccccc3C#N)nc2n1 [Example 25, 2-[5-tert-Butyl-7-(3,3-difluoro-pyrrolidin-1-yl)-[1,2,3]triazolo[4,5-d]pyrimidin-2-ylmethyl]-benzonitrile] | – | – | 0.1 | 205 |
| CC(C)(C)c1nc(N2CCC(F)(F)C2)c2nn(Cc3cccc(F)c3Cl)nc2n1 [Example 30, 5-tert-Butyl-2-(2-chloro-3-fluoro-benzyl)-7-(3,3-difluoro-pyrrolidin-1-yl)-2H-[1,2,3]triazolo[4,5-d]pyrimidine] | – | – | 0.7 | – |
| CC(C)(C)c1nc(N2CCC(F)(F)C2)c2nn(Cc3cc(F)ccc3Cl)nc2n1 [Example 31, 5-tert-Butyl-2-(2-chloro-5-fluoro-benzyl)-7-(3,3-difluoro-pyrrolidin-1-yl)-2H-[1,2,3]triazolo[4,5-d]pyrimidine] | – | – | 0.5 | – |
| CC(C)(C)c1nc(N2CCC(F)(F)C2)c2nn(C3COC3)nc2n1 [Example 32, 5-tert-Butyl-7-(3,3-difluoro-pyrrolidin-1-yl)-2-oxetan-3-yl-2H-[1,2,3]triazolo[4,5-d]pyrimidine] | – | – | 19 | – |
